Assay results: ChEMBL document CHEMBL4390686, “Design, Synthesis, and Pharmacokinetic Evaluation of Phosphate and Amino Acid Ester Prodrugs for Improving the Oral Bioavailability of the HIV-1 Protease Inhibitor Atazanavir” (J Med Chem, 2019)
Converted amounts (≈) assume the structure as drawn.

Tests used:
[1] = Tmax in cannulated Sprague-Dawley rat assessed as (R)-(5S,10S,11S,14S)-11-Benzyl-5,14-di-tert-butyl-3,6,13,16-tetraoxo-8-(4-(pyridin-2-yl)benzyl)-2,17-dioxa-4,7,8,12,15-pentaazaoctadecan-10-yl 2-Amino-3-methylbutanoate level at 3 mg/kg equiv of atazanavir administered orally by UPLC/MS/MS analysis; assay type: ADME, organism-based; conditions: in vivo, po
physchem [2] = conditions: phosphate buffer, pH 6.5
Description: Aqueous solubility of the compound in pH 6.5 phosphate buffer by RP-UPLC analysis

[3] = Cmax in cannulated Sprague-Dawley rat assessed as (R)-(5S,10S,11S,14S)-11-Benzyl-5,14-di-tert-butyl-3,6,13,16-tetraoxo-8-(4-(pyridin-2-yl)benzyl)-2,17-dioxa-4,7,8,12,15-pentaazaoctadecan-10-yl 2-Amino-3-methylbutanoate level at 3 mg/kg equiv of atazanavir administered orally by UPLC/MS/MS analysis; assay type: ADME, organism-based; parameters: dose 3 mg/kg, route oral; conditions: in vivo, po
[4] = system: Human immunodeficiency virus 1
Description: (§2) Antiviral activity against HIV1 NL4-3 infected in human MT2 cells assessed as reduction in viral yield measured after 4 days by EnduRen live cell substrate based luciferase reporter gene assay

physchem [5] = conditions: 30% CH3CN/HCl buffer, pH 1
Description: Half life in pH 1 30%CH3CN/HCl buffer at 50 mM by RP-UPLC analysis

physchem [6] = conditions: HCl buffer, pH 1
Description: Aqueous solubility of the compound in pH 1 HCl buffer by RP-UPLC analysis

[7] = rat, in vivo, po, 3 mg/kg
physchem [8] = conditions: 30% CH3CN/acetate buffer, pH 4
Description: Half life in pH 4 30%CH3CN/acetate buffer at 50 mM by RP-UPLC analysis

physchem [9] = conditions: acetate buffer, pH 4
Description: Aqueous solubility of the compound in pH 4 acetate buffer by RP-UPLC analysis

Protease = Protease (Human immunodeficiency virus 1, UniProt Q9YQ12)
Protease, sequence (Q9YQ12 whole entry): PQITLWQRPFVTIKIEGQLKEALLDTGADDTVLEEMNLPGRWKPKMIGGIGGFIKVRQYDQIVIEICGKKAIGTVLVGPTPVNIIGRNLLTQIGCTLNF
Description: Inhibition of HIV1 protease activity

[10] = rat, in vivo, po, 3 mg/kg; remark: listed apart in the source
Description: AUClast in cannulated Sprague-Dawley rat assessed as atazanavir level at 3 mg/kg equiv of atazanavir administered orally by UPLC/MS/MS analysis

physchem [11] = conditions: 30% CH3CN/phosphate buffer, pH 6.5
Description: Half life in pH 6.5 30%CH3CN/phosphate buffer at 50 mM by RP-UPLC analysis

[12] = rat, in vivo, po, 3 mg/kg; remark: listed apart in the source
[13] = (§1) Cmax in cannulated Sprague-Dawley rat assessed as (S)-(5S,10S,11S,14S)-11-Benzyl-5,14-di-tert-butyl-3,6,13,16-tetraoxo-8-(4-(pyridin-2-yl)benzyl)-2,17-dioxa-4,7,8,12,15-pentaazaoctadecan-10-yl 2-amino-3-methylbutanoate level at 3 mg/kg equiv of atazanavir administered orally by UPLC/MS/MS analysis; assay type: ADME, organism-based; parameters: dose 3 mg/kg, route oral; conditions: in vivo, po
[14] = as §1, with “AUClast” for “Cmax”; assay type: ADME, organism-based; parameters: dose 3 mg/kg, time 0 - last, route oral; conditions: in vivo, po
[15] = Tmax in cannulated Sprague-Dawley rat assessed as (S)-(5S,10S,11S,14S)-11-Benzyl-5,14-di-tert-butyl-3,6,13,16-tetraoxo-8-(4-(pyridin-2-yl)benzyl)-2,17-dioxa-4,7,8,12,15-pentaazaoctadecan-10-yl 2-amino-3-methylbutanoate level at 3 mg/kg equiv of atazanavir administered orally by UPLC/MS/MS analysis; assay type: ADME, organism-based; conditions: in vivo, po
in vitro [16] = conditions: human, Caco-2
Description: Efflux ratio of apparent permeability across basolateral to apical side over apical to basolateral side in human Caco2 cells

[17] = Prodrug conversion in intestinal content of closed loop rat intestinal model assessed as atazanavir recovery at 1 mg/kg administered as cassette dose by LC/MS analysis; assay type: ADME, organism-based; conditions: in vivo
[18] = Drug recovery in feces of po dosed human; assay type: ADME, organism-based; conditions: faeces, read-out: Drug recovery
in vitro [19] = conditions: human, Caco-2; remark: listed apart in the source
Description: Apparent permeability across basolateral to apical side in human Caco2 cells at 2 uM

[20] = Aqueous solubility of the compound in pH 4 citrate buffer by RP-UPLC analysis; assay type: physicochemical
[21] = biological target: T1, UDP-glucuronosyltransferase 1A1 (Rattus norvegicus, UniProt Q64550); assay: Inhibition of recombinant rat UGT1A1 using beta-estradiol as substrate preincubated for 5 mins followed by substrate addition and measured after 40 mins by LC-MS/MS analysis; assay type: ADME
T1 sequence (Q64550 whole entry): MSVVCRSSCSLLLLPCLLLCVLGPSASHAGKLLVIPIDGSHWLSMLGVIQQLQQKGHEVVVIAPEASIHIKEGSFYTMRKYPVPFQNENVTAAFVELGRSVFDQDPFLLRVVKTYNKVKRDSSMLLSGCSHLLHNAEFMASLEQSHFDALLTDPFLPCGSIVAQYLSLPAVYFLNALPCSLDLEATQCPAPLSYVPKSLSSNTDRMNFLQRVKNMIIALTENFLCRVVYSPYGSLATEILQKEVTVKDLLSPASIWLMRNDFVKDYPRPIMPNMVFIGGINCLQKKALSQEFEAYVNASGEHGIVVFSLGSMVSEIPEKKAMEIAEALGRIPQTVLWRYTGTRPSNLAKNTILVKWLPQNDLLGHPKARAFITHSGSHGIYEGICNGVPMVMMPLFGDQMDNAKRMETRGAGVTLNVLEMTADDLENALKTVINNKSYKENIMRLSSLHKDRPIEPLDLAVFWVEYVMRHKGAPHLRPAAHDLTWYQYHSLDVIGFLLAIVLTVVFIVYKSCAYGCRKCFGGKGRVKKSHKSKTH

[22] = Aqueous solubility of the compound in pH 5 buffer by RP-UPLC analysis; assay type: physicochemical
[23] = system: Human immunodeficiency virus 1; assay: microbe, parasite or virus in culture; conditions: Human immunodeficiency virus 1, NL4-3, MT2, 96 h
Description: as §2

[24] = Oral bioavailability in dog; assay type: ADME, organism-based, Canis lupus familiaris; conditions: in vivo
[25] = biological target: T2, UDP-glucuronosyltransferase 1A1 (Homo sapiens, UniProt P22309); assay: Inhibition of UGT1A1 in human liver microsomes using beta-estradiol as substrate preincubated for 5 mins followed by substrate addition and measured after 40 mins by LC-MS/MS analysis; assay type: ADME
T2 sequence (P22309 whole entry): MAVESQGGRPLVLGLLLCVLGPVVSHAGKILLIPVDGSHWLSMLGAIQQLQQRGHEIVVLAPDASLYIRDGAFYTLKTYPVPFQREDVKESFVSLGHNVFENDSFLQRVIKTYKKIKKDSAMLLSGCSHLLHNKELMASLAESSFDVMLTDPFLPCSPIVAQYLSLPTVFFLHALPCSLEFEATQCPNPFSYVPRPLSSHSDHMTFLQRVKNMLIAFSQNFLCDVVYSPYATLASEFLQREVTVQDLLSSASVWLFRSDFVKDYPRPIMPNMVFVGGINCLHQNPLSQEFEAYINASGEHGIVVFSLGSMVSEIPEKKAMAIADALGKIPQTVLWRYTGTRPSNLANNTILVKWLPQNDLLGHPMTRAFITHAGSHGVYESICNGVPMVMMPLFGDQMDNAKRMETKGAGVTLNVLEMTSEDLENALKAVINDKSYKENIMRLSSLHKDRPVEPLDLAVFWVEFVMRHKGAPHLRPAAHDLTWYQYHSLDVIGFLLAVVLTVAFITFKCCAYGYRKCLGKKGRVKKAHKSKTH

[26] = Elimination half life in rat hepatocytes at 1 uM in absence of esterase inhibitor PMSF/CYP450 inhibitor ABT; assay type: ADME, cell-based, Hepatocyte; conditions: read-out: beta t1/2
[27] = Drug recovery in feces of po dosed rat; assay type: ADME, organism-based; conditions: faeces, read-out: Drug recovery
[28] = Aqueous solubility of the compound in pH 3 buffer by RP-UPLC analysis; assay type: physicochemical
[29] = Prodrug conversion in intestinal homogenates of closed loop rat intestinal model assessed as atazanavir recovery at 1 mg/kg administered as cassette dose by LC/MS analysis; assay type: ADME, organism-based, Intestine; conditions: in vivo
in vitro [30] = conditions: human, Caco-2; remark: listed apart in the source
Description: Apparent permeability across apical to basolateral side in human Caco2 cells at 2 uM

[31] = biological target: T2, UDP-glucuronosyltransferase 1A1; assay: Inhibition of recombinant human UGT1A1 using bilirubin as substrate preincubated for 5 mins followed by substrate addition and measured after 40 mins by LC-MS/MS analysis; assay type: ADME
[32] = Drug recovery in feces of po dosed dog; assay type: ADME, organism-based, Canis lupus familiaris; conditions: faeces, read-out: Drug recovery
[33] = Prodrug conversion in mesenteric vein plasma of closed loop rat intestinal model assessed as atazanavir recovery at 1 mg/kg administered as cassette dose by LC/MS analysis; assay type: ADME, organism-based; conditions: in vivo
[34] = Oral bioavailability in rat; assay type: ADME, organism-based; conditions: in vivo
[35] = Dissociation constant, pKa of the compound; assay type: physicochemical
physchem [36] = conditions: phosphate buffer, pH 7.4
Description: Aqueous solubility of the compound in pH 7.4 phosphate buffer by RP-UPLC analysis

[37] = biological target: T1, UDP-glucuronosyltransferase 1A1; assay: Inhibition of UGT1A1 in rat liver microsomes using beta-estradiol as substrate preincubated for 5 mins followed by substrate addition and measured after 40 mins by LC-MS/MS analysis; assay type: ADME

Q: For `COC(=O)N[C@H](C(=O)N[C@@H](Cc1ccccc1)[C@H](CN(Cc1ccc(-c2ccccn2)cc1)NC(=O)[C@@H](NC(=O)OC)C(C)(C)C)OC(=O)[C@H](NC(=O)[C@H](N)C(C)C)C(C)C)C(C)(C)C`, which Tmax [1] is on record?
A: The Tmax was 0.021 days.

Q: And the solubility (physchem [2])?
A: Its solubility is 820 µg/mL (≈ 908 µM).

Q: And the Cmax [3]?
A: The Cmax was 1430 nM.

Q: What about the EC50 [4] of the same compound?
A: Its EC50 is 0.9 to 1250 nM.

Q: And the half-life at 50000 µM (physchem [5])?
A: Its half-life at 50000 µM is greater than 20.8 days.

Q: What about the solubility (physchem [6]) of the same compound?
A: Its solubility is greater than 2400 µg/mL.

Q: And the Tmax [7]?
A: The Tmax was 0.042 days.

Q: And the half-life at 50000 µM (physchem [8])?
A: Its half-life at 50000 µM is greater than 20.8 days.

Q: What about the solubility (physchem [9]) of the same compound?
A: Its solubility is greater than 2200 µg/mL.

Q: What about the IC50 (Protease) of the same compound?
A: The IC50 was 4 to 1140 nM.

Q: And the AUClast [10]?
A: Its AUClast is 0.053 µM·h.

Q: What about the half-life at 50000 µM (physchem [11]) of the same compound?
A: Its half-life at 50000 µM is greater than 20.8 days.

Q: And the Cmax [12]?
A: Its Cmax is 12 nM.

Q: With `COC(=O)N[C@H](C(=O)N[C@@H](Cc1ccccc1)[C@H](CN(Cc1ccc(-c2ccccn2)cc1)NC(=O)[C@@H](NC(=O)OC)C(C)(C)C)OC(=O)[C@@H](NC(=O)[C@@H](N)C(C)C)C(C)C)C(C)(C)C` as the compound, how does the Cmax [13] read?
A: The Cmax was 30 nM.

Q: What about the solubility (physchem [2]) of the same compound?
A: Its solubility is 780 µg/mL (≈ 864 µM).

Q: What about the AUClast [14] of the same compound?
A: The AUClast was 0.085 µM·h.

Q: What about the EC50 [4] of the same compound?
A: Its EC50 is 0.9 to 1250 nM.

Q: And the half-life at 50000 µM (physchem [5])?
A: Its half-life at 50000 µM is greater than 20.8 days.

Q: What about the solubility (physchem [6]) of the same compound?
A: The solubility was greater than 2150 µg/mL.

Q: And the Tmax [7]?
A: The Tmax was 0.21 days.

Q: What about the half-life at 50000 µM (physchem [8]) of the same compound?
A: Its half-life at 50000 µM is greater than 20.8 days.

Q: And the solubility (physchem [9])?
A: Its solubility is greater than 1200 µg/mL.

Q: And the IC50 (Protease)?
A: Its IC50 is 4 to 1140 nM.

Q: What about the AUClast [10] of the same compound?
A: Its AUClast is 0.02 µM·h.

Q: What about the half-life at 50000 µM (physchem [11]) of the same compound?
A: Its half-life at 50000 µM is greater than 20.8 days.

Q: What about the Cmax [12] of the same compound?
A: The Cmax was 4 nM.

Q: What about the Tmax [15] of the same compound?
A: Its Tmax is 0.12 days.

Q: With `COC(=O)N[C@H](C(=O)N[C@@H](Cc1ccccc1)[C@@H](O)CN(Cc1ccc(-c2ccccn2)cc1)NC(=O)[C@@H](NC(=O)OC)C(C)(C)C)C(C)(C)C` [ATAZANAVIR] as the compound, how does the efflux ratio (in vitro [16]) read?
A: The efflux ratio was greater than 14.

Q: And the Drug recovery [17]?
A: The Drug recovery was 16.1%.

Q: What about the dose excreted [18] of the same compound?
A: The dose excreted was 79%.

Q: And the Papp B→A at 2 µM (in vitro [19])?
A: Its Papp B→A at 2 µM is 20.3 ×10⁻⁶ cm/s.

Q: What about the solubility [20] of the same compound?
A: The solubility was less than 1 µg/mL.

Q: What about the IC50 [21] of the same compound?
A: Its IC50 is 4200 nM.

Q: What about the solubility [22] of the same compound?
A: Its solubility is less than 1 µg/mL.

Q: What about the EC50 [23] of the same compound?
A: The EC50 was 0.7 nM.

Q: What about the bioavailability [24] of the same compound?
A: The bioavailability was 36%.

Q: What about the IC50 [25] of the same compound?
A: Its IC50 is 600 nM.

Q: And the half-life at 1 µM [26]?
A: Its half-life at 1 µM is 0.0187 days.

Q: And the dose excreted [27]?
A: Its dose excreted is 39%.

Q: What about the solubility [28] of the same compound?
A: The solubility was 28 µg/mL (≈ 39.7 µM).

Q: And the Drug recovery [29]?
A: The Drug recovery was 1.6%.

Q: And the Papp A→B at 2 µM (in vitro [30])?
A: Its Papp A→B at 2 µM is less than 1.5 ×10⁻⁶ cm/s.

Q: And the IC50 [31]?
A: The IC50 was 300 nM.

Q: What about the IC50 (Protease) of the same compound?
A: Its IC50 is 0.3 nM.

Q: And the dose excreted [32]?
A: The dose excreted was 79%.

Q: What about the Drug recovery [33] of the same compound?
A: The Drug recovery was 1.4%.

Q: What about the bioavailability [34] of the same compound?
A: The bioavailability was 15%.

Q: And the pKa [35]?
A: Its pKa is 4.7.

Q: And the solubility (physchem [36])?
A: The solubility was less than 1 µg/mL.

Q: What about the IC50 [37] of the same compound?
A: The IC50 was 3400 nM.
